Experimental data from a melting point compilation (Tetko et al.; mined from patent text by program, amines drawn as free bases though some values may be those of a salt).

Compound	melting point [°C]
Cc1sc(S(N)(=O)=O)cc1NC(=O)c1cnn2c(C(F)(F)F)cc(-c3ccc(C(F)(F)F)cc3)nc12	297
CC(=O)Nc1nc(O)c2cc(I)cnc2n1	> 280
CN(C)C(=O)c1cn(-c2cc3c(=O)n(NS(C)(=O)=O)c(=O)[nH]c3cc2C(F)(F)F)cn1	284 to 286
CCCC1(OCCO)CCNCC1	72
CCNC(=O)Nc1ccc(C(O)(C(F)(F)F)C(F)(F)F)cc1[N+](=O)[O-]	169 to 171
CN(C)N=Nc1cc([N+](=O)[O-])sc1C(N)=O	240 to 246
COc1ccc(-c2cc(=O)c3c(O)cc(OC)cc3o2)cc1	174 to 175
COc1ccc(C(O)C(F)(F)C(=O)SC(C)(C)C)cc1 (configuration not stated)	73 to 75
CCC(CC)C(NS(=O)(=O)c1ccc(Cl)c(Cl)c1)c1ccnn1-c1ccccc1 (configuration not stated)	56 to 66
N#CN1CCC2(CC1)CN(c1ccccc1Cl)c1ccccc12	158 to 160
Cc1cc(SCc2ccc(OCc3ccc(OC(F)(F)F)cc3)cc2)ccc1OCC(=O)O	141 to 142
CNC(=S)n1nc(Oc2ncc(C(F)(F)F)cc2Cl)cc1C	63 to 65
CS(=O)(=O)Nc1ccc(OCCCCl)cc1	120 to 122
CSC(=NC#N)NCCSCc1ccc(Nc2ccccc2)nc1	180 to 182
CCOC(=O)CCCn1cc(-c2cccnc2)c2cc([N+](=O)[O-])ccc21	76 to 78
Cn1c2ccc(Cl)cc2c(=O)n2nc(C#N)cc12	350
CCOCc1nc2cnc3cc(-c4ccccc4)ccc3c2n1CC1CCN(C(=O)OC(C)(C)C)CC1	166 to 167
ClCc1ccc(OCCCCc2ccccc2)cc1	60 to 62
NC(=O)COC(=O)c1ccccc1	118
CCOC(=NC(=O)Nc1ccc(OC(F)(F)F)cc1)c1c(F)cccc1F	98 to 100
CC1(C)CCC(C)(C)c2c(O)cc(Br)cc21	93
O=c1ccn(-c2cccc(C(F)(F)F)c2)nc1-c1cc(C(F)(F)F)nn1-c1ccccc1	190 to 191
Cc1csc2nc(=O)n(C)c(-c3ccccc3F)c12	176 to 178
O=C(O)CCCc1ccc(N2CCOCC2)cc1	167 to 168
COCc1c[nH]c(-c2ccc(OCc3ccccc3)cc2)n1	146 to 148
Cc1oc(-c2ccccc2)nc1COc1ccc(COc2cncc(CC#N)c2)cc1	137 to 138

Compound	melting point [°C]
C[C@H]1CCCC(C)(C)[C@@H]1[C@H](O)c1ccc(Cl)c(Cl)c1	94.2 to 96.2
Cc1cccc(-c2n[nH]cc2-c2ccc(F)c(-c3ccc(C(C)(C)O)cn3)c2)n1	169 to 172
Fc1ccc(Cn2c(NC3CCN(CCSc4nc5cccnc5s4)CC3)nc3ccccc32)cc1	160
CC(C)(C)OC(=O)NC1CC=CC1	68 to 70
CC(C)c1noc(-c2ncn3c2[C@@H]2CCCN2C(=O)c2c(Cl)cccc2-3)n1	187 to 188
NC(=O)c1ccc(Cl)c2c1C=C([N+](=O)[O-])CO2	225 to 227
COc1ccc(-n2nc3c4c([nH]cc-3c2=O)CCCCCC4)cc1	275 to 277
COC(=O)c1c(Cl)cc(C)nc1Oc1c(C)cc(C)cc1C	127 to 128
CC(CC(=O)O)Nc1cccc(Cl)c1 (configuration not stated)	50
Cc1c(C2=NC(C)(C)CO2)cccc1[N+](=O)[O-]	60 to 61
N=C(N)Nc1nc(CSCCNC2=NS(=O)(=O)N=C2N)cs1	134 to 149
COCCNC(=O)c1cccc(-c2ccc(F)c3cc(Cc4cccc(S(C)(=O)=O)c4)sc23)c1	158 to 159
CN1Cc2c(C(N)=NO)ncn2-c2cccc(Cl)c2C1=O	> 250
Cc1ccsc1C(=O)Nc1ccc(C(=O)N2Cc3cccn3Cc3ccccc32)cc1	232 to 235
COc1cc(C2C3=C(COC3=O)Nc3ccc4cn[nH]c4c32)ccc1F (configuration not stated)	307 to 309
N#Cc1c(O)nsc1S(=O)(=O)c1ccccc1	163 to 164
CCCC(=O)Nc1cc(Oc2ccc(Cl)cc2)ccc1NC(=NC(=O)OC)NC(=O)OC	201
CC(C)(C)OC(=O)N[C@@H](Cc1ccccc1)C(=O)NC1CCC(Nc2cccc3c2C(=O)c2ccccc2C3=O)CC1 (some centres not stated)	142
CCCc1nn(C)c2c(=O)[nH]c(-c3cc(/C=C/C(=O)N(C)C)ccc3OCC)nc12	219 to 221
NC(=S)Nc1cc(F)ccc1-c1ccccc1	185 to 187
O=C(O)C(=O)c1ccc(OCCSc2ccc3ccccc3c2)cc1	121 to 123
C#CC1(O)C=CC2C3CCC4=CC(=O)CC(O)C4C3CCC21CC (configuration not stated)	129 to 130
COc1cn(-c2cc(F)c(N3CCOCC3)cc2F)nc(-c2ccnn2-c2ccccc2)c1=O	211 to 212
CS(=O)(=O)NCCn1c(=O)[nH]c2ccccc21	162 to 170
O=C(OCc1ccccc1)C1CC(=C2NC(=O)N(c3ccccc3)C2=O)c2ccc(Cl)cc2N1 (configuration not stated)	> 220
CCCCCCNC(C)=C1C(=O)OC(=O)C(C(C)=O)=C1O	80 to 82

Compound	melting point [°C]
CCS(=O)(=O)Nc1ccc(-c2cccc(-c3nc(C(C)C)[nH]c3-c3cccc(C)n3)c2)cc1	123 to 135
CC1(C)CC(c2ccccn2)c2cc(C(N)=O)ccc2O1 (configuration not stated)	96 to 98
O=C1CC[C@@H](C(=O)N[C@@H](Cc2c[nH]cn2)C(=O)N[C@@H](Cc2c[nH]c3ccccc23)C(=O)OCc2ccccc2)N1	250 to 252
OCCNCCc1c[nH]c2ccccc12	92
CS(=O)(=O)c1ccc(Oc2ccc(OCC#N)cc2)cc1	114 to 116
N#CC(C(=O)OC1CCCCC1)=C1Nc2ccccc2O1	143 to 145
C=C1CCc2c(F)c(F)cc3c(=O)c(C(=O)OCC)cn1c23	272 to 274
CSc1nn2c(N)c3c(nc2c1S(=O)(=O)c1ccccc1)CCC3	> 230
Cc1cc(O)c(O)cc1Br	92 to 98
CN1C(=O)CN=C(c2ccccc2Cl)c2cccn21	132 to 134
CCCc1nc(C)n2[nH]c(=O)nc2c1Cc1ccc(-c2ccccc2C#N)cc1	215 to 216
COCCOc1cc2c(Nc3ccc(Sc4nccn4C)c(Cl)c3)c(C#N)cnc2cc1OCCCN(C)C	194 to 203
Oc1ccc(-c2c(Cl)c3cc(O)ccc3n2Cc2ccc(OCCN3CCCCCC3)cc2)cc1	196 to 198
CC(C)(Nc1c(Cl)cccc1[N+](=O)[O-])C(=O)O	107 to 109
COc1ccc(CC(=O)Nc2cccc3nc(N[C@@H]4CCc5ccccc54)ccc23)cc1	175
Cc1cc2ccccc2n1-c1ccc(F)cc1	43
CCOC(=O)CCc1ccc(CCNS(=O)(=O)c2ccc(Cl)cc2)cc1	61 to 62
COc1c(N2CCC(NC3CC3)C(C)C2)c(F)c(N)c2c(=O)c(C(=O)O)cn(C3CC3)c12 (configuration not stated)	218 to 220
Cc1ccc(N2C(=O)C(O)=C(C(=O)c3ccc(C(C)C)cc3)C2c2ccc(OC(C)C)cn2)nn1 (configuration not stated)	243 to 245
Cn1nc(-c2cnc(N)nc2-c2ccccc2)ccc1=O	254 to 255
Cc1cc([N+](=O)[O-])c(C)cc1O	121 to 123
CC(C)Oc1ccc(-c2ccc3nc(C(=O)NC(Cc4ccc(OCc5ccccc5)cc4)C(=O)O)cn3c2)cc1 (configuration not stated)	263
COC(=O)C=Cc1ccc(OCc2nc(-c3ccccc3)oc2C)c(C(F)(F)F)c1	148 to 149
C=C(c1ccc(-c2cc[nH]n2)cc1)C(O)(Cn1cncn1)c1ccc(F)cc1F (configuration not stated)	182 to 184
CN(SC(Cl)(Cl)Cl)C(=O)ON=C1SCC(=O)NC1(C)C	189 to 190
Cc1ccccc1COCC1OC(n2cc(C(F)(F)F)c(=O)[nH]c2=O)CC1O (configuration not stated)	178 to 179

Compound	melting point [°C]
COc1c(C)c(C)c(OC)c(CC[C@@]2(C)CO2)c1C	47 to 48
Cn1c(C(F)(F)F)cc(=O)n(-c2ccc3snc(C(Cl)Cl)c3c2)c1=O	148 to 149
Cc1oc(-c2ccc(C(F)(F)F)cc2)nc1COc1ccc(/C=C/Cn2oc(=O)[nH]c2=O)cc1	128 to 130
CC(=O)Nc1ccc2c(c1)OCCCO2	108 to 109
NNc1nc2ccc(OC(F)(F)F)cc2s1	208
COc1cc(OC)c(-c2cc3ccccc3n2C)cc1C=CC(=O)c1ccc(S(=O)(=O)N(C)C)cc1	120 to 122
CCCCC(=O)N(Cc1ccc(-c2ccccc2S(=O)(=O)N=CN(C)C)cc1)C(C#N)C(=O)OCC (configuration not stated)	130 to 132
O=CNc1ccccc1O	129
Cn1ccc2cc(NC(=O)/C=C/c3ccc(C(C)(C)C)cc3)ccc21	171
CCCC1CC(O)c2cc(S(N)(=O)=O)sc2S1 (configuration not stated)	156 to 157
CC(=O)OC1CCC2(C)C(CCC3C2CC(OC(C)=O)C2(C)C(C(C)CCC=O)CCC32)C1 (configuration not stated)	145
N#Cc1cc(CC(=O)O)cc2c1NC(C(F)(F)F)CC2 (configuration not stated)	148 to 149
O=C(O)C(Cl)=Cc1cc(-n2c(=O)cc(C(F)(F)F)[nH]c2=O)ccc1Cl	> 250
COc1cc(C[C@H]2NC(=O)CN(Cc3ccccc3)C2=O)ccc1C	205 to 209
Nc1c2c(nc3ccccc13)CCCC2OCCBr (configuration not stated)	164
O=C(Cc1cc(F)cc(F)c1)Nc1ccc(NCc2ccc(F)cc2)nc1N1CCOCC1	196 to 198
CC(O)c1cc(-c2cccc(F)c2)ccc1N (configuration not stated)	136 to 137
Cc1cc(C(c2cc(C)sc2C)c2cc(C)sc2C)c(C)s1	143 to 144
c1ccc(N2CCN(Cc3n[nH]c4ccccc34)CC2)nc1	148 to 150
COc1cc(C=Cc2ccccc2)ccc1OCC(O)CCCc1cccnc1 (configuration not stated)	110 to 111
CCN1CCCC1CNC(=O)c1sc(CO)c(C)c1OC (configuration not stated)	118 to 119
CC(CCCc1ccc(F)cc1)c1cc(NC(N)=O)c2c(c1)OC(C)(C)c1ccncc1-2 (configuration not stated)	179 to 181
O=C1CCCCC1Oc1ccc(-c2c(-c3ccccc3)nn3ccccc23)nn1 (configuration not stated)	214 to 216
Cc1[nH]c(=O)ccc1-c1ccc(O)c(N)c1	279 to 283
